In patent publication US20230399358A1, “IMMUNOGLOBULIN PURIFICATION PEPTIDES AND THEIR USE” (North Carolina State University, priority 2019, published 2023):
Entries after “also recorded” stand apart in the source; their conditions may differ. Like-named read-outs stand apart in the source and are kept apart here. No end group written: not given here.

Tests used:
[1] = tested on: human IgG; assay type: binding
Description: (§1) Measurement of IgG binding by peptide-based chromatographic adsorbents: For initial studies, 35 mg of MWRGWQ (SEQ ID NO:2)-Toyopearl, RHLGWF (SEQ ID NO:3)-Toyopearl, WQRHGI (SEQ ID NO:1)-Toyopearl, GWLHQR (SEQ ID NO:4)-Toyopearl, and HWRGWV (SEQ ID NO:18)-Toyopearl (control) resins were equilibrated in PBS pH 7.4, reaching a swollen volume of 0.1 mL, and subsequently incubated with 1 mg/mL IgG in 0.205 mg/mL CHO cell culture supernatant for 30 minutes. The resins were subsequently washed several times with PBS to remove non-specifically bound proteins. Elution was performed with 100 mM glycine buffer pH 2.5. Flowthrough and elution fractions were collected and analyzed by SDS PAGE under reducing conditions. The resulting gels were stained with Coomassie staining. Further, 25 mg of the adsorbents MWRGWQ (SEQ ID NO:2)-Toyopearl, NIFRGWQ (SEQ ID NO:21)-Toyopearl, MWRAWQ (SEQ ID NO:5)-Toyopearl, MWRGFQ (SEQ ID NO:7)-Toyopearl, MWRGWN (SEQ ID NO:22)-Toyopearl, (NorL) WRGWQ (SEQ ID NO:23)-Toyopearl, MGRGWQ (SEQ ID NO:24)-Toyopearl, MWRWQ (SEQ ID NO:6)-Toyopearl, MWRGGQ (SEQ ID NO:26)-Toyopearl, GWRGWQ (SEQ ID NO:8)-Toyopearl, WQRHGI (SEQ ID NO:1)-Toyopearl, WNRHGI (SEQ ID NO:12)-Toyopearl, WQRAGI (SEQ ID NO:28)-Toyopearl, WQRHAI (SEQ ID NO:11)-Toyopearl, WQRHGL (SEQ ID NO:9)-Toyopearl, FQRHGI (SEQ ID NO:29)-Toyopearl, and WQRHGV (SEQ ID NO:10)-Toyopearl resins were equilibrated in PBS pH 7.4, reaching a swollen volume of 0.1 mL, and subsequently incubated with 1 mg/mL IgG in PBS at pH 7.4 for 30 minutes. The amount of unbound IgG in the supernatant samples was quantified by Bradford assay and utilized to determine the IgG binding % by the peptide variants.
A limited library of residue-by-residue changes confirmed the importance of each residue in peptides WQRHGI (SEQ ID NO:1) and MWRGWQ (SEQ ID NO:2) in reducing the binding energy between the peptide and the IgG target. […] This was accomplished by designing and constructing an ensemble of 20 variants of peptides WQRHGI (SEQ ID NO:1) and MWRGWQ (SEQ ID NO:2). Selected residues in positions 1-6 were mutated. The peptide variants were synthesized directly on Toyopearl AF-amino-650M resin via Fmoc/tBu chemistry. The resulting adsorbents were incubated with a solution of human IgG at 2 mg/mL at a ratio of 1 mL of resin per 3.5 mL of solution for 30 min at room temperature. The residual concentration of IgG in solution was determined by Bradford concentration assay of the supernatants and utilized to calculate the amounts of bound IgG per volume of resin; Table 7 reports the % binding, defined as mg IgG bound by variant/mg IgG bound by original sequence (either WQRHGI (SEQ ID NO:1) or MWRGWQ (SEQ ID NO:2))×100%, of each sequence variant.

[2] = Solubility of free peptide in buffer (preparation for ITC); assay type: physicochemical
Description: MWRGWQ (SEQ ID NO:2) was unable to be examined via ITC. Peptide MWRGWQ (SEQ ID NO:2) was not soluble in pH 7.4 buffer, likely due to self-associative properties. MWRGWQ (SEQ ID NO:2) was found soluble in highly acidic buffer, but ITC results were confounded by the heat of mixing between acidic and neutral solutions. […] Attempts were made to raise the pH of buffer in which MWRGWQ (SEQ ID NO:2) was dissolved, but the peptide was seen to gel when the pH was raised above 5.
MWRGWQ's (SEQ ID NO:2) binding affinity could not be examined using ITC. […] However, when the peptide was dissolved in a lower pH solution, the heat of mixing between the different pH solutions was extremely high, and peptide-peptide or peptide-IgG binding energies upon titration became difficult to differentiation from the heat of mixing in ITC experiments.

[3] = tested on: human polyclonal IgG in CHO cell culture fluid; assay: Chromatographic purification of IgG from CHO cell culture fluid on WorkBeads resin, SDS-PAGE densitometry; conditions: FIG. 8, reduced ligand density 35.2 milliequivalents/mL
Description: Purification of IgG from CHO Cell culture fluids using MWRGWQC (SEQ ID NO:31)- and WQRHGIC (SEQ ID NO:30)—Workbeads: A volume of 0.1 mL of resin was packed in a PEEK microbore column, installed on a Waters 2695 unit, and equilibrated with PBS, pH 7.4. All chromatographic buffers were filtered through a compatible 0.2 μm filter prior to use. A volume of 100 μL of solution of human polyclonal IgG at 1 mg/mL in a CHO cell culture fluid at 0.205 mg/mL CHO HCPs was injected in the column at 0.02 mL/min (RT: 5 minutes). Following injection, the resin was washed with PBS at 0.2 mL/min and, subsequently, with 100 mM NaCl in PBS at 0.2 mL/min. Elution was then conducted with […] pH 4. An acidic cleaning step was conducted in 0.1 M glycine pH 2.5 to remove any proteins still bound. The absorbance of the effluent was monitored by UV/Vis spectrophotometry at 280 nm. Fractions were collected and adjusted to neutral pH. Total protein concentration was measured by BCA assay. All collected fractions were also analyzed via SDS PAGE under reducing conditions. The gel was stained by silver staining, and the overall IgG purity in the eluted fractions was determined by densitometric analysis using ImageJ software. Finally, the feed and eluted fractions were analyzed using a CHO-specific ELISA kit to determine the log removal value (LRV) of HCPs.
The high purity of the recovered IgG using WQRHGI (SEQ ID NO:1), as calculated by densitometric analysis (100%) was confirmed by the HCP LRV value of 2.7, thus indicating WQRHGI (SEQ ID NO:1) has purification abilities similar to Protein A. This is a remarkable result. […] The collected chromatographic fractions were analyzed by SDS-PAGE (FIG. 7B, silver stained to highlight diluted CHO HCPs). The % values of IgG in the fractions (expressed as a ratio of IgG concentration over total protein (e.g., IgG+CHO HCPs)) were calculated by densitometric analysis of the lanes in the SDS gel and were as follows: Control (C), 0.00%; Load (L) 59.77%; Flowthrough (FT), 0.00%; Elution 1 (El1), 100.00%; Elution 2 (El2), 0.00%; IgG 93.30%. […]

[4] = tested on: host cell protein (HCP); conditions: literature value; cited from earlier work
[5] = tested on: human polyclonal IgG in CHO-S cell culture fluid; assay: Static purification of IgG from CHO cell culture supernatant on peptide-Toyopearl resins, SDS-PAGE densitometry; conditions: for % Purity (IgG over total proteins): lane FT (flow-through); for % Purity (IgG over total eluted proteins): lane R (pH 2.5)
Description: as §1
Characterization of IgG-binding peptide variants WQRHGI (SEQ ID NO:1), MWRGWQ (SEQ ID NO:2), RHLGWF (SEQ ID NO:3), and GWLHQR (SEQ ID NO:4) in competitive conditions: The four selected sequence variants were tested for their ability to purify human IgG from a CHO cell culture supernatant and found largely to mirror their in silico predictions. Even though they seemed to underperform in silico, RHLGWF (SEQ ID NO:3) and GWLHQR (SEQ ID NO:4) were tested alongside WQRHGI (SEQ ID NO:1) and MWRGWQ (SEQ ID NO:2) in these conditions in order to confirm their ability to bind IgG and examine their selectivity as predicted in silico. The feedstock was prepared by spiking human polyclonal IgG into a clarified null CHO-S cell culture fluid to obtain an IgG concentration of 1 mg/mL and a CHO HCP concentration of 0.205 mg/mL. An aliquot of 500 μL was loaded onto each peptide adsorbent in static conditions for 30 min. Following a washing step with PBS to remove loosely bound proteins, a first elution step was conducted using 0.1 M glycine buffer pH 2.5 to remove all bound proteins. Flow through fractions and pH 2.5 elution fractions were loaded neat and analyzed by SDS PAGE (FIGS. 6A-6B). The values of IgG purity in the eluted fractions were determined by densitometric analysis of the corresponding lanes on the gels, and are reported in Table 9.

[6] = tested on: human IgG; conditions: reference [77], cited from earlier work
[7] = tested on: IgG; conditions: optimized adsorbents, Menegatti et al. 2016; cited from earlier work
[8] = tested on: human polyclonal IgG in CHO-S cell culture fluid; assay: Static purification of IgG from CHO cell culture supernatant on peptide-Toyopearl resins, SDS-PAGE densitometry; conditions: Gel B, lane E (pH 4)
[9] = biological target: human polyclonal IgG (human); assay: ITC at 25 C, peptide titrated into polyclonal IgG in PBS pH 7.4, independent single-site fit
[10] = biological target: human polyclonal IgG (human); assay: batch incubation of peptide-Toyopearl resin with human IgG, Bradford of unbound IgG; mg IgG bound relative to WQRHGI (the reference itself)
[11] = biological target: human polyclonal IgG (human); assay: batch incubation of peptide-Toyopearl resin with human IgG, Bradford of unbound IgG; mg IgG bound relative to MWRGWQ (the reference itself)
[12] = biological target: human polyclonal IgG (human); assay: breakthrough curve, 20 mg/mL IgG in PBS on a peptide-WorkBeads column, residence time 2 min
[13] = biological target: human polyclonal IgG (human); assay: breakthrough curve, 20 mg/mL IgG in PBS on a peptide-WorkBeads column, residence time 5 min
[14] = biological target: human polyclonal IgG (human); assay: batch adsorption isotherm of IgG on peptide-WorkBeads resin, BCA of unbound IgG, Langmuir fit
[15] = biological target: human polyclonal IgG (human); assay: batch adsorption isotherm of IgG on peptide-WorkBeads resin, BCA of unbound IgG, Langmuir fit (KD(Solid))

## MWRGWQ [MWRGWQ]
[1]
  % Binding (mg IgG bound by variant/mg IgG bound by original sequence × 100%): 100.00%
[2]; highly acidic buffer / lower pH
  solubility: soluble; also recorded: could be dissolved
[2]; pH 7.4 buffer / neutral pH
  solubility: not soluble; also recorded: tended to gel

## Protein A: Protein A adsorbent, industrial standard for mAb capture
[3]; elution lane (pH 4)
  % Purity (IgG over total protein): 100.00%
[3]; lane FT
  % Purity (IgG over total protein): 55.74%
[4]
  HCP LRV: 2.5-3.0

## HWRGWV [reference compound]
[5]; Gel A
  % Purity (IgG over total proteins): 100.00%
  % Purity (IgG over total eluted proteins): 97.81%
[5]; Gel B
  % Purity (IgG over total proteins): 45.40%
  % Purity (IgG over total eluted proteins): 93.79%
[6]; residence time 2 min
  DBC at 10% breakthrough: 25 mg IgG/mL resin
[6]; residence time 5 min
  DBC at 10% breakthrough: 36 mg IgG/mL resin
[4]
  HCP LRV: 1.6
[7]
  binding capacity: up to 91.5 mg of IgG per mL of adsorbent

## GWLHQR
[5]; Gel B
  % Purity (IgG over total proteins): 57.02%
  % Purity (IgG over total eluted proteins): 0.00%
[5]; competitive conditions, CHO cell culture supernatant
  IgG yield: lower than expected IgG yields; also recorded: lower IgG yield
[8]
  % Purity (IgG over total eluted proteins): 100%

B1: WQRHGI (SEQ ID NO:1) (peptide)
peptide: WQRHGI
[9]
  Kd: 58.8 µM
  stoichiometry (N, interacting peptides per IgG) (peptides per IgG): 10
[10]
  % Binding: 100%

B2: MWRGWQ (SEQ ID NO:2) (peptide)
peptide: MWRGWQ
[11]
  % Binding: 100%

B3: MWRGWQC (SEQ ID NO:31)-WorkBeads (peptide)
peptide: MWRGWQC(iodoacetyl‑activated TREN WorkBeads resin)
modifications: not fully specified
[12]
  DBC (dynamic binding capacity at 10% breakthrough) (mg IgG/mL resin): 44
[13]
  DBC (dynamic binding capacity at 10% breakthrough) (mg IgG/mL resin): 55.3
[14]
  Qmax (mg IgG/mL resin): 57.5
[15]
  Kd: 8.1 µM

B4: WQRHGIC (SEQ ID NO:30)-WorkBeads (peptide)
peptide: WQRHGIC(iodoacetyl‑activated TREN WorkBeads resin)
modifications: not fully specified
[12]
  DBC (dynamic binding capacity at 10% breakthrough) (mg IgG/mL resin): 33.6
[13]
  DBC (dynamic binding capacity at 10% breakthrough) (mg IgG/mL resin): 43.8
[14]
  Qmax (mg IgG/mL resin): 52.6
[15]
  Kd: 3.2 µM
